Data taken from ChEMBL document CHEMBL3352358, “Discovery of 2-(cyclohexylmethylamino)pyrimidines as a new class of reversible valosine containing protein inhibitors” (J Med Chem, 2014).

What was measured:
[1] = molecular target: Transitional endoplasmic reticulum ATPase (Homo sapiens, UniProt P55072); assay: biochemical; format: cell-based
Description: Inhibition of human full length VCP (2 to 806 residues) expressed in High5 insect cells assessed as reduction in ATPase activity by measuring ADP formation by NADH coupled assay

[2] = Inhibition of cell proliferation of human HCT116 cells after 72 hrs by thermostable firefly luciferase based assay; format: functional, HCT-116
[3] = Homo sapiens, HCT-116, 72 h, read-out: IC50

Transitional endoplasmic reticulum ATPase, sequence (P55072 whole entry): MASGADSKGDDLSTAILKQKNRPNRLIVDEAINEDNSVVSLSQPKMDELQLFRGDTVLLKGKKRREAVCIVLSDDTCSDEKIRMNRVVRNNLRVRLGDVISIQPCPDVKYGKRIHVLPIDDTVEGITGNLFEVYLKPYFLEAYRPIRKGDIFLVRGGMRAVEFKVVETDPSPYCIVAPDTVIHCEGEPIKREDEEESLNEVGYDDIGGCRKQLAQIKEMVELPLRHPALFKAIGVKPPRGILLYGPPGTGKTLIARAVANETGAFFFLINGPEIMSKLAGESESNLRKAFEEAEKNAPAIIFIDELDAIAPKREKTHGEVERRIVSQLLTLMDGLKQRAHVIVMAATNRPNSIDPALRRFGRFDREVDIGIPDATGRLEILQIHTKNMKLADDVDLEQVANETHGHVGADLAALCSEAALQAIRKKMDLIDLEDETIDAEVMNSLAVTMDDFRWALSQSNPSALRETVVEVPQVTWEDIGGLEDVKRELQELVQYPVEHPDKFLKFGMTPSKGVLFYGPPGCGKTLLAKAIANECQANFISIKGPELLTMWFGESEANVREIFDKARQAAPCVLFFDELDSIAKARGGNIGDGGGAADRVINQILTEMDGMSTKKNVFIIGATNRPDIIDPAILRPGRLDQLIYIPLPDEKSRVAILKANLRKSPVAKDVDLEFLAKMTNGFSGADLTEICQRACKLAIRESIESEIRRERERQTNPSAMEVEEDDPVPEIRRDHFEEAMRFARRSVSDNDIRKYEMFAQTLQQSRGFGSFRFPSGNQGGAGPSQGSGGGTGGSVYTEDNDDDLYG

| SMILES | IC50 [1] [nM] | IC50 [2, 3] [nM] | IC50 ([2]; hct-116) |
| --- | --- | --- | --- |
| Cc1cc(-c2ccccc2)nc(SCc2ccc(C(=O)O)cc2)n1 | 4800 |  |  |
| COc1cccc(-c2cc(NCc3ccccc3)nc(NC[C@H]3CC[C@H](C(N)=O)CC3)n2)c1 | 149 | 6660 |  |
| Cc1cc(-c2ccccc2)nc(SCc2ccc(C(=O)NS(=O)(=O)C(F)(F)F)cc2)n1 | 21600 |  |  |
| Cc1cc(-c2ccccc2)nc(SCc2ccccc2)n1 | > 37000 |  |  |
| Cc1cc(-c2ccccc2)nc(SCCc2ccc(C(=O)O)cc2)n1 | 20500 |  |  |
| Cc1cc(-c2ccccc2)nc(Sc2ccc(C(=O)O)cc2)n1 | > 37000 |  |  |
| Cc1cc(-c2ccccc2)nc(SCCC(=O)O)n1 | > 37000 |  |  |
| Cc1cc(-c2ccccc2)nc(S(=O)(=O)Cc2ccc(C(=O)O)cc2)n1 | > 37000 |  |  |
| Cc1cc(-c2ccccc2)nc(NCc2ccc(C(=O)O)cc2)n1 | 15400 |  |  |
| Cc1cc(-c2ccccc2)nc(NCc2cccc(C(=O)O)c2)n1 | > 37000 |  |  |
| Cc1cc(-c2ccccc2)nc(NC[C@H]2CC[C@H](C(=O)O)CC2)n1 | 2600 |  |  |
| O=C(O)[C@H]1CC[C@H](CNc2nccc(-c3ccccc3)n2)CC1 | 8700 |  |  |
| Cc1cc(-c2ccccc2C)nc(NC[C@H]2CC[C@H](C(=O)O)CC2)n1 | > 37000 |  |  |
| COc1ccccc1-c1cc(C)nc(NC[C@H]2CC[C@H](C(=O)O)CC2)n1 | > 37000 |  |  |
| Cc1cccc(-c2cc(C)nc(NC[C@H]3CC[C@H](C(=O)O)CC3)n2)c1 | 11400 |  |  |
| Cc1cc(-c2cccc(Cl)c2)nc(NC[C@H]2CC[C@H](C(=O)O)CC2)n1 | 4800 |  |  |
| COc1cccc(-c2cc(C)nc(NC[C@H]3CC[C@H](C(=O)O)CC3)n2)c1 | > 37000 |  |  |
| Cc1ccc(-c2cc(C)nc(NC[C@H]3CC[C@H](C(=O)O)CC3)n2)cc1 | 2700 |  |  |
| Cc1cc(-c2ccc(Cl)cc2)nc(NC[C@H]2CC[C@H](C(=O)O)CC2)n1 | 2600 |  |  |
| Cc1cc(-c2ccc(F)cc2)nc(NC[C@H]2CC[C@H](C(=O)O)CC2)n1 | 8400 |  |  |
| COc1ccc(-c2cc(C)nc(NC[C@H]3CC[C@H](C(=O)O)CC3)n2)cc1 | > 37000 |  |  |
| O=C(O)[C@H]1CC[C@H](CNc2nc(-c3ccccc3)cc(-c3ccccc3)n2)CC1 | 300 |  |  |

| SMILES | IC50 [1] [nM] | IC50 [2, 3] [nM] | IC50 ([2]; hct-116) |
| --- | --- | --- | --- |
| Cc1ccccc1-c1cc(-c2ccccc2)nc(NC[C@H]2CC[C@H](C(=O)O)CC2)n1 | 673 |  |  |
| O=C(O)[C@H]1CC[C@H](CNc2nc(-c3ccccc3)cc(-c3ccccc3F)n2)CC1 | 141 |  |  |
| O=C(O)[C@H]1CC[C@H](CNc2nc(-c3ccccc3)cc(-c3ccccc3Cl)n2)CC1 | 700 |  |  |
| COc1ccccc1-c1cc(-c2ccccc2)nc(NC[C@H]2CC[C@H](C(=O)O)CC2)n1 | 3040 |  |  |
| Cc1cccc(-c2cc(-c3ccccc3)nc(NC[C@H]3CC[C@H](C(=O)O)CC3)n2)c1 | 578 |  |  |
| O=C(O)[C@H]1CC[C@H](CNc2nc(-c3ccccc3)cc(-c3cccc(F)c3)n2)CC1 | 552 |  |  |
| O=C(O)[C@H]1CC[C@H](CNc2nc(-c3ccccc3)cc(-c3cccc(Cl)c3)n2)CC1 | 483 |  |  |
| COc1cccc(-c2cc(-c3ccccc3)nc(NC[C@H]3CC[C@H](C(=O)O)CC3)n2)c1 | 543 |  |  |
| CS(=O)(=O)c1cccc(-c2cc(-c3ccccc3)nc(NC[C@H]3CC[C@H](C(=O)O)CC3)n2)c1 | 116 |  |  |
| O=C(O)[C@H]1CC[C@H](CNc2nc(-c3ccccc3)cc(-c3cccc([N+](=O)[O-])c3)n2)CC1 | 201 |  |  |
| [N-]=[N+]=Nc1cccc(-c2cc(-c3ccccc3)nc(NC[C@H]3CC[C@H](C(=O)O)CC3)n2)c1 | 879 |  |  |
| Cc1ccc(-c2cc(-c3ccccc3)nc(NC[C@H]3CC[C@H](C(=O)O)CC3)n2)cc1 | 577 |  |  |
| O=C(O)[C@H]1CC[C@H](CNc2nc(-c3ccccc3)cc(-c3ccc(F)cc3)n2)CC1 | 742 |  |  |
| O=C(O)[C@H]1CC[C@H](CNc2nc(-c3ccccc3)cc(-c3ccc(Cl)cc3)n2)CC1 | 221 |  |  |
| COc1ccc(-c2cc(-c3ccccc3)nc(NC[C@H]3CC[C@H](C(=O)O)CC3)n2)cc1 | 921 |  |  |
| CS(=O)(=O)c1ccc(-c2cc(-c3ccccc3)nc(NC[C@H]3CC[C@H](C(=O)O)CC3)n2)cc1 | 1090 |  |  |
| O=C(O)[C@H]1CC[C@H](CNc2nc(-c3ccccc3)cc(-c3ccc([N+](=O)[O-])cc3)n2)CC1 | 2190 |  |  |
| Nc1ccc(-c2cc(-c3ccccc3)nc(NC[C@H]3CC[C@H](C(=O)O)CC3)n2)cc1 | 112 |  |  |
| Nc1ccc(-c2cc(-c3ccccc3)nc(NC[C@H]3CC[C@H](C(=O)O)CC3)n2)cc1[N+](=O)[O-] | 60 |  |  |
| O=C(O)[C@H]1CC[C@H](CNc2nc(-c3ccccc3)cc(-c3ccc4[nH]ccc4c3)n2)CC1 | 150 |  |  |
| O=C(O)[C@H]1CC[C@H](CNc2nc(-c3ccccc3)cc(-c3ccco3)n2)CC1 | 570 |  |  |
| O=C(O)[C@H]1CC[C@H](CNc2nc(-c3ccccc3)cc(-c3cccnc3)n2)CC1 | 1200 |  |  |

| SMILES | IC50 [1] [nM] | IC50 [2, 3] [nM] | IC50 ([2]; hct-116) |
| --- | --- | --- | --- |
| O=C(O)[C@H]1CC[C@H](CNc2nc(-c3ccccc3)cc(-c3ccncc3)n2)CC1 | 1670 |  |  |
| O=C(O)[C@H]1CC[C@H](CNc2nc(-c3ccccc3)cc(-c3ccoc3)n2)CC1 | 2190 |  |  |
| O=C(O)[C@H]1CC[C@H](CNc2nc(Nc3ccccc3)cc(-c3ccccc3)n2)CC1 | 36 |  |  |
| O=C(O)[C@H]1CC[C@H](CNc2nc(NC3CCCCC3)cc(-c3ccccc3)n2)CC1 | 4310 |  |  |
| O=C(O)[C@H]1CC[C@H](CNc2nc(-c3ccccc3)cc(N3CCOCC3)n2)CC1 | > 10000 |  |  |
| Cc1ccccc1CNc1cc(-c2ccccc2)nc(NC[C@H]2CC[C@H](C(N)=O)CC2)n1 | 9290 |  |  |
| NC(=O)[C@H]1CC[C@H](CNc2nc(NCc3ccccc3F)cc(-c3ccccc3)n2)CC1 | 1690 |  |  |
| NC(=O)[C@H]1CC[C@H](CNc2nc(NCc3ccccc3Cl)cc(-c3ccccc3)n2)CC1 | 6940 |  |  |
| NC(=O)[C@H]1CC[C@H](CNc2nc(NCc3ccccc3Br)cc(-c3ccccc3)n2)CC1 | 7110 |  |  |
| COc1ccccc1CNc1cc(-c2ccccc2)nc(NC[C@H]2CC[C@H](C(N)=O)CC2)n1 | 8860 |  |  |
| Cc1cccc(CNc2cc(-c3ccccc3)nc(NC[C@H]3CC[C@H](C(N)=O)CC3)n2)c1 | 1680 |  |  |
| NC(=O)[C@H]1CC[C@H](CNc2nc(NCc3cccc(F)c3)cc(-c3ccccc3)n2)CC1 | 474 |  |  |
| NC(=O)[C@H]1CC[C@H](CNc2nc(NCc3cccc(Cl)c3)cc(-c3ccccc3)n2)CC1 | 2760 |  |  |
| COc1cccc(CNc2cc(-c3ccccc3)nc(NC[C@H]3CC[C@H](C(N)=O)CC3)n2)c1 | 5640 |  |  |
| NC(=O)[C@H]1CC[C@H](CNc2nc(NCc3cccc([N+](=O)[O-])c3)cc(-c3ccccc3)n2)CC1 | 4610 |  |  |
| NC(=O)[C@H]1CC[C@H](CNc2nc(NCc3cccc(S(N)(=O)=O)c3)cc(-c3ccccc3)n2)CC1 | 7610 |  |  |
| Cc1ccc(CNc2cc(-c3ccccc3)nc(NC[C@H]3CC[C@H](C(N)=O)CC3)n2)cc1 | 2180 |  |  |
| NC(=O)[C@H]1CC[C@H](CNc2nc(NCc3ccc(F)cc3)cc(-c3ccccc3)n2)CC1 | 2430 |  |  |
| NC(=O)[C@H]1CC[C@H](CNc2nc(NCc3ccc(Cl)cc3)cc(-c3ccccc3)n2)CC1 | 3470 |  |  |
| COc1ccc(CNc2cc(-c3ccccc3)nc(NC[C@H]3CC[C@H](C(N)=O)CC3)n2)cc1 | 5040 |  |  |
| NC(=O)[C@H]1CC[C@H](CNc2nc(NCc3ccc(S(N)(=O)=O)cc3)cc(-c3ccccc3)n2)CC1 | 5170 |  |  |
| CS(=O)(=O)c1ccc(CNc2cc(-c3ccccc3)nc(NC[C@H]3CC[C@H](C(N)=O)CC3)n2)cc1 | > 10000 |  |  |

| SMILES | IC50 [1] [nM] | IC50 [2, 3] [nM] | IC50 ([2]; hct-116) |
| --- | --- | --- | --- |
| CC(=O)c1cccc(-c2cc(NCc3ccccc3)nc(NC[C@H]3CC[C@H](C(N)=O)CC3)n2)c1 | 87 | 6550 |  |
| NC(=O)[C@H]1CC[C@H](CNc2nc(NCc3ccccc3)cc(-c3cccc(O)c3)n2)CC1 | 106 | > 10000 |  |
| NC(=O)[C@H]1CC[C@H](CNc2nc(NCc3ccccc3)cc(-c3cccc(CO)c3)n2)CC1 | 135 | > 10000 |  |
| Cc1cccc(-c2cc(NCc3ccccc3)nc(NC[C@H]3CC[C@H](C(N)=O)CC3)n2)c1 | 183 | 4160 |  |
| NC(=O)[C@H]1CC[C@H](CNc2nc(NCc3ccccc3)cc(-c3cccc(C(F)(F)F)c3)n2)CC1 | 237 | 7970 |  |
| CC(=O)Nc1ccc(-c2cc(NCc3ccccc3)nc(NC[C@H]3CC[C@H](C(N)=O)CC3)n2)cc1 | 59 | 4310 |  |
| NC(=O)[C@H]1CC[C@H](CNc2nc(NCc3ccccc3)cc(-c3ccc(CO)cc3)n2)CC1 | 89 | 7890 |  |
| CC(=O)c1ccc(-c2cc(NCc3ccccc3)nc(NC[C@H]3CC[C@H](C(N)=O)CC3)n2)cc1 | 102 | > 10000 |  |
| NC(=O)[C@H]1CC[C@H](CNc2nc(NCc3ccccc3)cc(-c3ccc(Cl)cc3)n2)CC1 | 106 | 7320 |  |
| NC(=O)[C@H]1CC[C@H](CNc2nc(NCc3ccccc3)cc(-c3ccc(C(F)(F)F)cc3)n2)CC1 | 222 | 7610 |  |
| CCOc1ccc(-c2cc(NCc3ccccc3)nc(NC[C@H]3CC[C@H](C(N)=O)CC3)n2)cc1 | 246 | 2230 |  |
| NC(=O)[C@H]1CC[C@H](CNc2nc(NCc3ccccc3)cc(-c3ccc(F)cc3)n2)CC1 | 299 | > 10000 |  |
| NC(=O)[C@H]1CC[C@H](CNc2nc(NCc3ccccc3)cc(-c3cc4ccccc4o3)n2)CC1 | 61 | 4640 |  |
| NC(=O)[C@H]1CC[C@H](CNc2nc(NCc3ccccc3)cc(-c3ccc4[nH]ncc4c3)n2)CC1 | 71 | 5720 |  |
| NC(=O)[C@H]1CC[C@H](CNc2nc(NCc3ccccc3)cc(-c3csc4ccccc34)n2)CC1 | 74 | 5820 |  |
| NC(=O)[C@H]1CC[C@H](CNc2nc(NCc3ccccc3)cc(-c3ccc4[nH]ccc4c3)n2)CC1 | 82 | 5640 |  |
| NC(=O)[C@H]1CC[C@H](CNc2nc(NCc3ccccc3)cc(-c3cccnc3)n2)CC1 | 109 | > 10000 |  |
| NC(=O)[C@H]1CC[C@H](CNc2nc(NCc3ccccc3)cc(-c3ccsc3)n2)CC1 | 452 | 7410 |  |
| NC(=O)[C@H]1CC[C@H](CNc2nc(NCc3ccccc3)cc(-c3ccoc3)n2)CC1 | 491 | 8750 |  |
| COC(=O)[C@H]1CC[C@H](CNc2nc(NCc3ccccc3)cc(-c3ccccc3)n2)CC1 |  |  | Not Active |
